Test results: patent publication US7718618B2, “Human cathelicidin antimicrobial peptides” (priority 2003, dated 2010)
Ends that are not written are not given here.

Assays:
S. aureus mprF = assay: LL-37 incubated in sweat, radial diffusion assay against S. aureus mprF; assay type: cell-based, Staphylococcus aureus; conditions: protease inhibitor added during incubation, 37° C., 6 hr
Procedure: Antibacterial activity evaluated by radial diffusion assay against S. aureus mprF after incubation of LL-37 (32 uM) in sweat. a) Increase in the inhibition zone is seen when incubated in sweat but not 10 mM PBS or distilled water (DW). b) Diameters of inhibition zone after 6 hr incubation at 37° C. in (SWT buffer; sweat buffer salts alone), (PBS), (D.W.; distilled water), (SWT; sterile filtered human sweat at 37° C.), (SWT at 4° C.), (SWT with PI, with protease inhibitor cocktail). c) Action of specific protease inhibitors on gain of antimicrobial activity. […] N.E.I.=neutrophil elastase inhibitor, L.E.I.=leukocyte elastase inhibitor. Data are triplicate determinations±SEM from single experiment representative of 3.
Sweat collection and processing. Sweat was collected on paper tissues (Kimwipes, Kimberly-Clark, GA) from healthy volunteers after exercise. After collection, 20 ml of sweat was centrifuged at 2000 g for 15 min. at 4° C., filtered through a […] (Acrodisc syringe filter, […], low protein binding, Fisher scientific, Tustin, Calif.), and frozen at −80° C. […] Protein concentrations were evaluated by BCA assay (protein assay reagent, Pierce, Rockford, Ill.) or Bradford protein assay (Bio-Rad, Hercules, Calif.) according to manufacture's instructions. […]

[1] = system: Staphylococcus aureus mprF; assay: Radial diffusion assay against S. aureus mprF; assay type: cell-based
Procedure: Antimicrobial assays. For screening of antimicrobial activity of HPLC fractions, radial diffusion assay was used. Lyophilized HPLC fractions were dissolved in DW (GibcoBRL, Grand Island, N.Y.), and tested against Staphylococcus aureus mprF. Thin plates (1 mm) of 1% agarose in 0.5% tryptone containing approximately 1×10^6 cells/ml of S. aureus mprF were used. 1 mm wells were punched in the plates and […] of samples dissolved in tissue culture grade sterile water were loaded in each well.
(§1) As a positive control, synthetic LL-37 was applied to separate wells. After incubation at 37° C. overnight, the inhibition zones were recorded by CCD camera and diameters measured. To evaluate antimicrobial activity against wild-type S. aureus (clinical isolate), and enteroinvasive E. coli 029, both radial diffusion and solution killing assays were done. Radial diffusion assays were done as described for S. aureus mprF. Solution killing was done in 10% TSB in 10 mM PB (TSB=30 gm/L Tryptic Soy Broth, Sigma, St Louis Mo.; 20×PB=27.6 g/L NaH2PO4-H2O, 53.65 g/L Na2HPO4-7H2O, pH 7.4). Bacteria in log-phase growth were suspended to 1×10^6 cells/ml, peptide added and incubated at 37° C. for 2 hr. Bacteria were then plated on TSB agar (TSB, Bactoagar 13 g/L, Becton Dickinson, Sparks Md.) for direct colony count and determination of CFU.

[2] = system: wild-type S. aureus (clinical isolate); assay: Radial diffusion assay against wild-type S. aureus; assay type: cell-based, Staphylococcus aureus
Procedure: as §1

[3] = system: enteroinvasive E. coli 029; assay: Radial diffusion assay against E. coli O29; assay type: cell-based
Procedure: as §1

[4] = system: Group A Streptococcus (NZ131); assay type: cell-based
Procedure: as §1
(§2) Activity against Group A Streptococcus (NZ131) was done only in solution assay as described. To evaluate antimicrobial activity in high salt conditions, solution assay was done in 10% TSB/10 mM PBS with several salt concentrations (concentration of NaCl; 10, 50, 100, 150, 300, 500 mM). Action against the C. albicans was determined in Dixon medium (0.6% Peptone, 4% Malt Extract, 1% Glucose, 0.1% Ox Bile, 1% Tween-80) in sterile 96-well microtiter plates (Corning Inc., Corning, N.Y.) at a final volume of […]. The assay mixtures contained 1-2.5×10^4 […] freshly grown Candida, 20% Dixon medium, 0.6 mM phosphate buffer pH 7, and […] chloramphenicol. Microtiter plates were incubated at 37° C. for 24 h with peptides, then plated on Dixon agar to determine the MFC (minimum fungicide concentration).

C. albicans ATCC 14053 = assay type: cell-based, Candida albicans
Procedure: as §2

Staphylococcus aureus = assay: S. aureus growth inhibition (turbidity OD600) with or without carbonate; assay type: cell-based
Procedure: Carbonate was identified as the antimicrobial enhancing factor in mammalian tissue culture media via serial deletion of Minimal Essential Media (MEM) components. Staphylococcus aureus was cultured in 20% Tryptic Soy Broth (TSB), 10% Fetal Bovine Serum (FBS) and 70% of various media or media components with, or without, 32 μM LL-37 to assess which components could increase antimicrobial activity. MEM buffers are 2200 mg/L NaHCO3, 140 mg/L NaH2PO4 and 6800 mg/L NaCl. MEM salts are 200 mg/L CaCl2, 400 mg/L KCl, 98 mg/L MgSO4. All solutions were adjusted to pH 7.4. Bacterial growth was measured as the change in turbidity at OD600 and percent inhibition was determined by comparing bacterial growth in the presence of peptide to that in the absence of peptide.
Inhibition of S. aureus was measured in 20% TSB, 10% FBS 1 mM NaH2PO4, 150 mM NaCl, with either 50 mM NaHCO3 or […] Glycine buffer at various pH.
Inhibition of Staph aureus growth in the presence of various concentrations of human (LL-37), murine (CRAMP) and porcine (PR-39). Cathelicidin antimicrobial peptides was measured in 20% TSB, 1 mM NaH2PO4, with, or without, […] NaHCO3 at pH 7.4.
The growth of S. aureus in the presence, or absence, of 32 μM LL-37 was measured in 20% TSB, 10% FBS, 1 mM NaH2PO4, 150 mM NaCl, and various concentrations of NaHCO3, all at pH 7.4. […] High concentrations of NaHCO3 retarded the growth of S. aureus. […]

E. coli = E. coli susceptibility to CRAMP with or without NaHCO3; assay type: cell-based
Group B Strep (GBS) = assay: Group B Strep susceptibility to CRAMP; assay type: cell-based; conditions: 16 μM peptide, without NaHCO3
Salmonella = Salmonella susceptibility to CRAMP; assay type: cell-based; conditions: 16 μM peptide, without NaHCO3
antigen presentation = assay: Antigen presentation in vitro; assay type: cell-based
S. aureus = assay: Release of cytoplasmic beta-galactosidase from S. aureus (membrane disruption); assay type: cell-based; conditions: with versus without NaHCO3
Excerpt: Release of cytoplasmic expressed beta-galactosidase was measure from bacteria with and without the addition of NaHCO3.

human erythrocytes = assay: Hemolysis assay on human whole blood; assay type: cell-based; conditions: peptide at 100 μM; relative to 0.1% Triton X-100
Procedure: Hemolysis Assay. Hemolytic activity was determined on human whole blood. Freshly obtained whole blood was washed 3× in PBS and resuspended in PBS at its original volume containing peptides at indicated concentrations. Samples were incubated at 37° C. for 1.5 to 3 h, and hemolysis determined by centrifuging at 300 g and measurement of the absorbance of the supernatant at 578 nm. Hemolytic activity of each peptide was expressed as the percentage of total hemoglobin released compared to that released by incubating with 0.1% Triton X-100.

[5] = 16 μM peptide in presence of NaHCO3
[6] = 16 μM peptide without SOM NaHCO3

Row | Molecule | Radial Diffusion Assay S. aureus MprF, minimal inhibitory concentration (MIC) [1] [μm] | Radial Diffusion Assay S. aureus (wt), minimal inhibitory concentration (MIC) [2] [μm] | Radial Diffusion Assay E. coli (O29), minimal inhibitory concentration (MIC) [3] [μm] | Liquid Assay GAS (NZ131), minimal concentration required to kill [4] [μm] | Liquid Assay C. albicans ATCC 14053, minimal concentration required to kill (C. albicans ATCC 14053) [μm] | further results
1 | NCCc1ccc(S(=O)(=O)F)cc1 [AEBSF] |  |  |  |  |  | blocking of the increase in antimicrobial activity of LL-37 in sweat (S. aureus mprF): most effective in blocking the increase in antimicrobial activity
2 | H-KSKEKIGKEFKRIVQRIKDFLRNLVPRTES-OH [KS-30] | 8 | 16 | 8 | 4 | 2 | action against wild-type S. aureus compared to LL-37 [2]: greatly increased action; action against E. coli compared to LL-37 [3]: greatly increased action
3 | KRIVQRIKDFLRNLVPRTES [KR-20] | 16 | >64 | >64 | 4 | 10 | 
4 | CRAMP |  |  |  |  |  | susceptibility of S. aureus (Staphylococcus aureus; [5]): became susceptible; susceptibility of S. aureus (Staphylococcus aureus; [6]): resistant; susceptibility of E. coli (E. coli; [5]): became susceptible; susceptibility of E. coli (E. coli; [6]): resistant; susceptibility of Group B Strep (GBS) (Group B Strep (GBS)): susceptible even without NaHCO3; susceptibility of Salmonella (Salmonella): susceptible even without NaHCO3; antigen presentation in vitro (antigen presentation): inhibits antigen presentation in vitro
5 | Polymyxin B |  |  |  |  |  | leakage of cytoplasmic protein (beta-galactosidase) (S. aureus): induces greater leakage of cytoplasmic protein with carbonate
6 | H-RKSKEKIGKEFKRIVQRIKDFLRNLVPRTES-OH [RK-31] | 8 | 16 | 8 | 8 | 4 | action against wild-type S. aureus compared to LL-37 [2]: greatly increased action; action against E. coli compared to LL-37 [3]: greatly increased action
7 | SSLLEKGLDGAKKAVGGLGKLGKDAVEDLESVGKGAVHDVKDVLDSV (listed as Homo sapiens) [DCD, dermcidin antimicrobial peptide of human sweat, reference compound] | >64 | >64 | >64 | >64 | >32 | 
8 | CC[C@H](C)[C@H](NC(=O)[C@H](CCCCN)NC(=O)[C@H](CCC(=O)O)NC(=O)[C@H](CCCCN)NC(=O)[C@H](CO)NC(=O)[C@H](CCCCN)NC(=O)[C@H](CCCNC(=N)N)NC(=O)[C@H](Cc1ccccc1)NC(=O)[C@H](Cc1ccccc1)NC(=O)[C@H](CC(=O)O)NC(=O)CNC(=O)[C@H](CC(C)C)NC(=O)[C@@H](N)CC(C)C)C(=O)NCC(=O)N[C@@H](CCCCN)C(=O)N[C@@H](CCC(=O)O)C(=O)N[C@@H](Cc1ccccc1)C(=O)N[C@@H](CCCCN)C(=O)N[C@@H](CCCNC(=N)N)C(=O)N[C@H](C(=O)N[C@H](C(=O)N[C@@H](CCC(N)=O)C(=O)N[C@@H](CCCNC(=N)N)C(=O)N[C@H](C(=O)N[C@@H](CCCCN)C(=O)N[C@@H](CC(=O)O)C(=O)N[C@@H](Cc1ccccc1)C(=O)N[C@@H](CC(C)C)C(=O)N[C@@H](CCCNC(=N)N)C(=O)N[C@@H](CC(N)=O)C(=O)N[C@@H](CC(C)C)C(=O)N[C@H](C(=O)N1CCC[C@H]1C(=O)N[C@@H](CCCNC(=N)N)C(=O)N[C@H](C(=O)N[C@@H](CCC(=O)O)C(=O)N[C@@H](CO)C(=O)O)[C@@H](C)O)C(C)C)[C@@H](C)CC)C(C)C)[C@@H](C)CC [LL-37] |  |  |  |  |  | % hemolysis (human erythrocytes): 9%
9 | Aprotinin |  |  |  |  |  | blocking of the increase in antimicrobial activity of LL-37 in sweat (S. aureus mprF): most effective in blocking the increase in antimicrobial activity
